One assay addresses HSD17B13 (Homo sapiens (Human), UniProt Q7Z5P4). The assay is described as follows: LC/MS estrone detection assay for HSD17B13 activity (estradiol to estrone). The note with it: estradiol substrate; for IC50: LC-MS/MS estrone detection; for Ki: LCMS, read-out: HSD17B13 Inhibition_Estradiol Substrate_LCMS: Ki. Type of assay: biochemical. The method, then: The liquid chromatography/mass spectrometry (LC/MS) estrone detection assay monitors the conversion of estradiol to estrone by HSD17B13. This assay was undertaken in a 96 wp format (Eppendorf deep well Plate 96/500) in an 80 μl reaction volume containing: 4 μM of Estradiol (E2; Cayman; Ser. No. 10/006,315), 6 mM NAD+(Sigma; #N0623) and 30 nM HSD17B13 enzyme (in-house; E. coli expressed His-tagged, purified, soluble protein) in a reaction containing 1M potassium phosphate buffer pH 7.4, with 0.5% vehicle (DMSO). Reactions were incubated for 2 hours at 26.5° C., and estradiol (E2) conversion to estrone (E1) was quantitated by LC-MS/MS based analyte detection for both E2 and E1 using LCMS grade reagents.
Reactions were terminated by the addition of two volumes of acetonitrile (MeCN; LCMS grade; CAS #75/05/8) containing deuterated (D4)-E1 used as internal standard (Clear Synth; #CS-T-54273; 500 ng/mL final concentration). Samples were applied to pre-prepared Bond Elut-C18 extraction cartridges (3 mL; Agilent; Ser. No. 12/102,028), washed and eluted in MeCN. Eluates were dried under nitrogen and re-suspended in 60% methanol (LCMS grade methanol; CAS #67/56/1) before submission for analysis. Aqueous linearity for E2 and E1 were included for quantification.
Analysis of samples was undertaken on a XBridge BEH C18 column (Waters; #186003033) using 0.1% Diethyl Amine in MeCN (mobile phase A; DEA CAS #109-89-7) and 0.1% Diethyl Amine in milli-Q water (mobile phase B) in a 3 min gradient allowing 25% B. Analytes were detected in negative mode using MRM analysis, with E2 having a RT of 1.85 min and E1 having a RT of 2 min. Activity of the enzyme, in the absence of NAD+, was used to evaluate specificity of conversion. Enzyme activity in the presence of test samples was expressed as a percentage of the uninhibited enzyme activity, and plotted versus inhibitor concentration. Non-linear regression was performed using a four-parameter logistic model and GraphPad Prism software (GraphPad Software, La Jolla, CA). All assessments were undertaken in duplicate evaluations and pooled during extraction process and subsequently injected as duplicates for LC-MS/MS analysis.

Another assay has as its target HSD17B14 (Homo sapiens (Human), UniProt Q9BPX1). The assay is described as follows: LC/MS estrone detection assay for HSD17B14 activity (estradiol to estrone). Type of assay: biochemical. The note with it: selectivity for HSD17B13 over HSD17B14. The method, then:
The liquid chromatography/mass spectrometry (LC/MS) estrone detection assay monitors the conversion of estradiol to estrone by HSD17B14. This assay was undertaken in a 96 well plates (Eppendorf deep well), in an 80 μl reaction volume containing: 8 μM of estradiol (E2; Cayman); 4 mM NAD+(Sigma); 120 nM HSD17B14 enzyme (in-house E. coli expressed His-tagged, purified, soluble protein); 1M potassium phosphate buffer pH 7.4, and 1.2% vehicle (DMSO). Reactions were incubated for 2 hours at 37° C. Estradiol (E2) conversion to estrone (E1) was quantitated by LC-MS/MS based analyte detection for E1 using LCMS grade reagents.
Reactions were terminated by the addition of two volumes of acetonitrile (MeCN; LCMS grade) containing deuterated (D4)-E1 used as internal standard (Clear Synth; 500 ng/mL final concentration). Samples were applied to pre-prepared Bond Elut-C18 extraction cartridges (3 mL; Agilent). The cartridges were washed with 1.5 mL water followed by 1.5 mL 5% aqueous methanol, and dried for 5 minutes under vacuum. They were then eluted with 4.5 mL MeCN. The eluates were dried under nitrogen and re-suspended in 200 μL of 60% methanol (LCMS grade) before submission for analysis. Standard curves of E2 and E1 in 4% DMSO were included for quantification.
Analysis of samples was performed on a XBridge BEH C18 column (Waters) using 0.1% Diethyl Amine in MeCN (mobile phase A) and 0.1% Diethyl Amine in milli-Q water (mobile phase B) in a 3 min gradient from 0-25% B. Analytes were detected in negative mode using MRM analysis, with E2 having a RT of 1.89 min and E1 having a RT of 2.07 min. Activity of the enzyme in the absence of NAD+ was used to evaluate specificity of conversion. Enzyme activity in the presence of test samples was expressed as a percentage of the uninhibited enzyme in the presence of 1.2% DMSO vehicle only, and plotted versus inhibitor concentration. Non-linear regression was performed using a four-parameter logistic model and GraphPad Prism software. All assessments were undertaken in duplicate evaluations, which were pooled during the extraction process and subsequently injected as duplicates for LC-MS/MS analysis.

Where only a bound is given, the exact number is not on record here.

HSD17B13, sequence (Q7Z5P4 20-300): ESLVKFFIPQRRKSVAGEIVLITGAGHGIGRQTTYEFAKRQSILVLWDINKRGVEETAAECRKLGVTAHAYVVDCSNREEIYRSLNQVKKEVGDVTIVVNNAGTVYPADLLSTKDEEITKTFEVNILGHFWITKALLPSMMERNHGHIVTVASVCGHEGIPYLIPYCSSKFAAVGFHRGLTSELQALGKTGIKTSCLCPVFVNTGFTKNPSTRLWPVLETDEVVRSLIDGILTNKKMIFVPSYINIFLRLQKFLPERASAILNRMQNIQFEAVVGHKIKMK
HSD17B14, sequence (Q9BPX1 whole entry): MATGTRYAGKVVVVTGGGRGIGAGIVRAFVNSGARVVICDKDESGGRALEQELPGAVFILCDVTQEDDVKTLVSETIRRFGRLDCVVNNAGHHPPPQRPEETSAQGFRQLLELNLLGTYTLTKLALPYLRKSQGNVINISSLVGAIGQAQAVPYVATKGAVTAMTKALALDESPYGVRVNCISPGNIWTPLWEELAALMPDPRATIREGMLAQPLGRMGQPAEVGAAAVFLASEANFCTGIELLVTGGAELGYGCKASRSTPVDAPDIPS

The molecule `O=C(Nc1ccc(-c2ccccc2)nc1C(=O)NCc1ccccc1OC(F)(F)F)c1cc(Cl)c(O)c(Cl)c1` [Example 57, 3-(3,5-dichloro-4-hydroxybenzamido)-6-phenyl-N-(2-(trifluoromethoxy)benzyl)picolin amide] yielded an IC50 against HSD17B13 of at most 0.1 µM.

Consider `O=C(Nc1ccc(-c2ccccc2)nc1C(=O)NCc1ccccc1OC(F)(F)F)c1cc(Cl)c(O)c(Cl)n1` [Example 58, 4,6-dichloro-5-hydroxy-N-(6-phenyl-2-((2-(trifluoromethoxy)benzyl)carbamoyl)pyridin-3-yl)picolinamide], for which, at HSD17B13, the IC50 was at most 0.1 µM.

With `O=C(Nc1sc(C2CC2)nc1C(=O)NCc1ccccc1C(F)(F)F)c1cc(Cl)c(O)c(Cl)n1` [Example 59, 2-cyclopropyl-5-(4,6-dichloro-5-hydroxypicolinamido)-N-(2-(trifluoromethyl)benzyl)thiazole-4-carboxamide], on HSD17B13, the Ki was at most 0.05 µM. On HSD17B14, this molecule returned an HSD17B14 fold selectivity of over 331 fold.

Regarding `O=C(Nc1sc(-c2ccccc2F)nc1C(=O)NCc1ccccc1C(F)(F)F)c1cc(Cl)c(O)c(Cl)n1` [Example 60, 5-(4,6-dichloro-5-hydroxypicolinamido)-2-(2-fluorophenyl)-N-(2-(trifluoromethyl)benzyl) thiazole-4-carboxamide], the Ki on HSD17B13 is at most 0.05 µM. This molecule also returned an HSD17B14 fold selectivity on HSD17B14 of over 980 fold.

As to `O=C(Nc1sc(-c2cc[nH]n2)nc1C(=O)NCc1ccccc1C(F)(F)F)c1cc(Cl)c(O)c(Cl)n1` [Example 71], on HSD17B13, the Ki was at most 0.05 µM.

For the molecule `O=C(Nc1sc(-c2ccccc2)nc1C(=O)NCC(F)(F)F)c1cc(Cl)c(O)c(Cl)n1` [Example 72], the Ki at HSD17B13 was in the range of 0.1 to 0.5 µM.

`O=C(Nc1sc(-c2ccc[nH]c2=O)nc1C(=O)NCc1ccccc1C(F)(F)F)c1cc(Cl)c(O)c(Cl)n1` [Example 74]: on HSD17B13, the Ki was at most 0.05 µM.

For `O=C(Nc1sc(-c2cncc(F)c2)nc1C(=O)NCc1ccccc1C(F)(F)F)c1cc(Cl)c(O)c(Cl)c1` [Example 75], the Ki on HSD17B13 is at most 0.05 µM.

For `O=C(Nc1sc(-c2cncc(F)c2)nc1C(=O)NCc1ccccc1C(F)(F)F)c1cc(Cl)c(O)c(Cl)n1` [Example 76], the Ki on HSD17B13 is at most 0.05 µM.

`O=C(Nc1sc(-c2ccc[nH]c2=O)nc1C(=O)NCc1ccccc1C(F)(F)F)c1cc(Cl)c(O)c(Cl)c1` [Example 77]: the Ki on HSD17B13 is at most 0.05 µM.

For the molecule `O=C(Nc1sc(N2CCS(=O)(=O)CC2)nc1C(=O)NCc1ccccc1C(F)(F)F)c1cc(Cl)c(O)c(Cl)c1` [Example 79, 5-(3,5-dichloro-4-hydroxybenzamido)-2-(1,1-dioxidothiomorpholino)-N-(2-(trifluoromethyl)benzyl)thiazole-4-carboxamide], the Ki on HSD17B13 is 0.1 to 0.5 µM.

`O=C(Nc1sc(N2CCOCC2)nc1C(=O)NCc1ccccc1C(F)(F)F)c1cc(Cl)c(O)c(Cl)n1` [Example 80, 5-(4,6-dichloro-5-hydroxypicolinamido)-2-morpholino-N-(2-(trifluoromethyl)benzyl)thiazole-4-carboxamide]: the Ki at HSD17B13 is 0.1 to 0.5 µM.

Turning to `O=C(Nc1sc(C2CCOCC2)nc1C(=O)NCc1ccccc1C(F)(F)F)c1cc(Cl)c(O)c(Cl)n1` [Example 81, 5-(4,6-dichloro-5-hydroxypicolinamido)-2-(tetrahydro-2H-pyran-4-yl)-N-(2-(trifluoromethyl)benzyl)thiazole-4-carboxamide], the Ki at HSD17B13 is 0.1 to 0.5 µM.

Take `O=C(Nc1sc(C2CCOCC2)nc1C(=O)NCc1ccccc1C(F)(F)F)c1cc(Cl)c(O)c(Cl)c1` [Example 82, 5-(3,5-dichloro-4-hydroxybenzamido)-2-(tetrahydro-2H-pyran-4-yl)-N-(2-(trifluoromethyl)benzyl)thiazole-4-carboxamide]: at HSD17B13, the Ki was in the range of 0.1 to 0.5 µM.

With `O=C(Nc1sc(C2CCCCC2)nc1C(=O)NCc1ccccc1C(F)(F)F)c1cc(Cl)c(O)c(Cl)c1` [Example 83], the Ki on HSD17B13 was at most 0.05 µM.

On to `O=C(Nc1sc(C2CCCCC2)nc1C(=O)NCc1ccccc1C(F)(F)F)c1cc(Cl)c(O)c(Cl)n1` [Example 84], for which the Ki on HSD17B13 is at most 0.05 µM.

For the molecule `CN1CC=C(c2nc(C(=O)NCc3ccccc3C(F)(F)F)c(NC(=O)c3cc(Cl)c(O)c(Cl)n3)s2)CC1` [Example 85, 5-(4,6-dichloro-5-hydroxypicolinamido)-2-(1-methyl-1,2,3,6-tetrahydropyridin-4-yl)-N-(2-(trifluoromethyl)benzyl) thiazole-4-carboxamide], at HSD17B13, the Ki lay within 0.1 to 0.5 µM.

In the case of `CN1CCC(c2nc(C(=O)NCc3ccccc3C(F)(F)F)c(NC(=O)c3cc(Cl)c(O)c(Cl)n3)s2)CC1` [Example 86, 5-(4,6-dichloro-5-hydroxypicolinamido)-2-(1-methylpiperidin-4-yl)-N-(2-(trifluoromethyl)benzyl)thiazole-4-carboxamide], the Ki at HSD17B13 is 0.1 to 0.5 µM.

As for `CN1CCC(c2nc(C(=O)NCc3ccccc3C(F)(F)F)c(NC(=O)c3cc(Cl)c(O)c(Cl)c3)s2)CC1` [Example 87], the Ki on HSD17B13 fell in the range of 0.1 to 0.5 µM.

For `O=C(Nc1sc(-c2ccccc2Cl)nc1C(=O)NCc1ccccc1C(F)(F)F)c1cc(F)c(O)c(Cl)c1` [Example 89], the Ki at HSD17B13 was at most 0.05 µM. The molecule also registered an HSD17B14 fold selectivity at HSD17B14 of 688 fold.

`CS(=O)(=O)c1cccc(-c2nc(C(=O)NCc3ccccc3C(F)(F)F)c(NC(=O)c3cc(Cl)c(O)c(Cl)c3)s2)c1` [Example 97]: at HSD17B13, the Ki was at most 0.05 µM. On HSD17B14, the HSD17B14 fold selectivity turned out to be 772 fold.

For the molecule `CS(=O)(=O)c1cccc(-c2nc(C(=O)NCc3ccccc3C(F)(F)F)c(NC(=O)c3cc(Cl)c(O)c(Cl)n3)s2)c1` [Example 98], the Ki on HSD17B13 is at most 0.05 µM. The HSD17B14 fold selectivity on HSD17B14 stood at 928 fold.

For `CC(NC(=O)c1nc(-c2ccccc2)sc1NC(=O)c1cc(Cl)c(O)c(Cl)n1)c1ccccc1C(F)(F)F` (stereo not shown) [Example 99], the Ki on HSD17B13 was at most 0.05 µM. This molecule returned an HSD17B14 fold selectivity on HSD17B14 of 253 fold.

With `O=C(Nc1sc(-c2cnccn2)nc1C(=O)NCc1ccccc1C(F)(F)F)c1cc(Cl)c(O)c(Cl)c1` [Example 100], the Ki on HSD17B13 was at most 0.05 µM. This molecule had an HSD17B14 fold selectivity on HSD17B14 of over 843 fold.

Regarding `O=C(Nc1sc(-c2cc(CN3CCCC3)ccc2F)nc1C(=O)NCc1ccccc1C(F)(F)F)c1cc(F)c(O)c(Cl)c1` [Example 105, 5-(3-chloro-5-fluoro-4-hydroxybenzamido)-2-(2-fluoro-5-(pyrrolidin-1-ylmethyl)phenyl)-N-(2-(trifluoromethyl)benzyl)thiazole-4-carboxamide], the Ki at HSD17B13 was 0.05 to 0.1 µM.

For `O=C(Nc1sc(-c2ccccc2F)nc1C(=O)NCC12CC(C1)C2)c1cc(F)c(O)c(Cl)c1` [Example 106, N-(bicyclo[1.1.1]pentan-1-ylmethyl)-5-(3-chloro-5-fluoro-4-hydroxybenzamido)-2-(2-fluorophenyl)thiazole-4-carboxamide], on HSD17B13, the Ki was at most 0.05 µM.

For the molecule `O=C(Nc1sc(-c2ccccc2F)nc1C(=O)NCc1ccccc1C(F)(F)F)c1cc(Cl)c(O)c(F)n1` [Example 107, 5-(4-chloro-6-fluoro-5-hydroxypicolinamido)-2-(2-fluorophenyl)-N-(2-(trifluoromethyl)benzyl)thiazole-4-carboxamide], the Ki on HSD17B13 is at most 0.05 µM.

(Values after patent US20250100993A1, “2-SUBSTITUTED THIAZOLE HSD17B13 INHIBITORS AND USES THEREOF” (Inipharm, Inc., priority 2022, published 2025).)
